Reference: patent US20080045514A1 (Cytovia, Inc., priority 2006, published 2008)
Counter-ions that a name gives are not always drawn.

Legend:
Type in all cases: cell-based
[1] = tested on: human breast cancer cell line T-47D; assay: Caspase cascade activation (EC50), T-47D; conditions: Homo sapiens; T47D cells; caspase cascade activation; read-out: caspase potency (EC50) T47D
How it was run: (§1)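 Fluorogenic DEVD-R110 cleavage at 485/530 nm gives the read-out, taken 3 h after substrate addition and corrected by the control's T=0 background. Compound-treated over control net RFU ratio was fitted sigmoidally for EC50. Cells had been treated 48 h at 0.016 to 10 μM final.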

[2] = tested on: human hepatocellular carcinoma cell line SNU398; assay: Caspase cascade activation (EC50), SNU398; conditions: Homo sapiens, SNU-398; SNU398 cells; caspase cascade activation; read-out: caspase potency (EC50) SNU398
How it was run: as §1

[3] = tested on: human colon carcinoma cell line HCT116; assay: Caspase cascade activation (EC50), HCT116; conditions: Homo sapiens, HCT-116; HCT116 cells; caspase cascade activation; read-out: caspase potency (EC50) HCT116
How it was run: as §1

[4] = tested on: human Burkitt's lymphoma cell line Namalwa; assay: Caspase cascade activation (EC50), Namalwa; conditions: Homo sapiens, Burkitts lymphoma cell; Namalwa cells; caspase cascade activation; read-out: caspase potency (EC50) Namalwa
How it was run: as §1

[5] = tested on: human lymphoma cell line Raji; assay: Caspase cascade activation (EC50), Raji; conditions: Homo sapiens, RAJI cells, read-out: caspase potency (EC50) RAJI
Protocol: (§2) Human breast cancer cell lines T-47D, human hepatocellular carcinoma cell line SNU398, human colon carcinoma cell line HCT116, human cancer cell line H1299, human Burkitt's lymphoma cell line Namalwa, human lymphoma cell line Raji, and human B cell lymphoblastoid cell line Ramos were grown according to media component mixtures designated by American Type Culture Collection+10% FCS (Invitrogen Corporation), in a 5% CO2-95% humidity incubator at 37° C. T-47D and H1299 cells were maintained at a cell density between 50 and 80% confluency at a cell density of 0.1 to 0.6×10^6 cells/mL. Cells were harvested at 600×g and resuspended at 0.65×10^6 cells/mL into appropriate media+10% FCS. An aliquot of 22.5 μL of cells was added to a well of a 384-well microtiter plate containing 2.5 μL of a 10% DMSO in RPMI-1640 media solution containing 0.16 to 100 μM of 3-(2-chlorophenyl)-6-(3,4-methylenedioxyphenyl)-7H-[1,2,4]triazolo[3,4-b][1,3,4]thiadiazine or other test compound (0.016 to 10 μM final). An aliquot of 22.5 μL of cells was added to a well of a 384-well microtiter plate containing 2.5 μL of a 10% DMSO in RPMI-1640 media solution without test compound as the control sample. The samples were mixed by agitation and then incubated at 37° C. for 48 h in a 5% CO2-95% humidity incubator. After incubation, the samples were removed from the incubator and 25 μL of a solution containing 14 μM of N—(Ac-DEVD)-N′-ethoxycarbonyl-R110 (SEQ ID No.:1) fluorogenic substrate (Cytovia, Inc.; WO99/18856), 20% sucrose (Sigma), 20 mM DTT (Sigma), 200 mM NaCl (Sigma), 40 mM Na PIPES buffer pH 7.2 (Sigma), and 500 μg/mL lysolecithin (Calbiochem) was added. The samples were mixed by agitation and incubated at room temperature. Using a fluorescent plate reader (Model SPECTRAfluor Plus, Tecan), an initial reading (T=0) was made approximately 1-2 min after addition of the substrate solution, employing excitation at 485 nm and emission at 530 nm, to determine the background fluorescence of the control sample. After the 3 h incubation, the samples were read for fluorescence as above (T=3 h). Calculation: The Relative Fluorescence Unit values (RFU) were used to calculate the sample readings as follows: RFU(T=3H)−Control RFU(T=0)=Net RFU(T=3h) The activity of caspase cascade activation was determined by the ratio of the net RFU value for 3-(2-chlorophenyl)-6-(3,4-methylenedioxyphenyl)-7H-[1,2,4]triazolo[3,4-b][1,3,4]thiadiazine (Example P) or other test compound to that of control samples. The EC50 (nM) was determined by a sigmoidal dose-response calculation (Prism 3.0, GraphPad Software Inc.).

[6] = tested on: human B cell lymphoblastoid cell line Ramos; assay: Caspase cascade activation (EC50), Ramos; conditions: Homo sapiens, RAMOS cells, read-out: caspase potency (EC50) RAMOS
Protocol: as §2

[7] = tested on: human colon carcinoma cell line HCT116; assay: Inhibition of cell proliferation (GI50), HCT116; conditions: Homo sapiens; HCT 116 cells, 48 h, CellTiter-Glo
Protocol: (§3) Human breast cancer cell lines T-47D, human hepatocellular carcinoma cell line SNU398, human colon carcinoma cell line HCT116, human lung cancer cell line H1299, human leukemia cell line K562, human lymphoma cell line Raji, human B cell lymphoblastoid cell line Ramos, and human Burkitt's lymphoma cell line Namalwa were grown and harvested as in Example 100. An aliquot of […] of cells (4.4×10^4 cells/mL) was added to a well of a 96-well microtiter plate containing 5 μL of a 10% DMSO in RPMI-1640 media solution containing 10 nM to 100 μM of 3-(2-chlorophenyl)-6-(3,4-methylenedioxyphenyl)-7H-[1,2,4]triazolo[3,4-b][1,3,4]thiadiazine (1 nM to 10 μM final). An aliquot of 45 μL of cells was added to a well of a 96-well microtiter plate containing 5 μL of a 10% DMSO in RPMI-1640 media solution without compound as the control sample for maximal cell proliferation (LMax). The samples were mixed by agitation and then incubated at 37° C. for 48 h in a 5% CO2-95% humidity incubator. After incubation, the samples were removed from the incubator and 25 μL of CellTiter-Glo™ reagent (Promega) was added. The samples were mixed by agitation and incubated at room temperature for 10-15 min. Plates were then read using a luminescent plate reader (Model SPECTRAfluor Plus, Tecan) to give Ltest values.
(§4) The samples were mixed by agitation and then incubated at 37° C. for 0.5 h in a 5% CO2-95% humidity incubator. After incubation, the samples were removed from the incubator and 25 μL of CellTiter-Glo™ reagent (Promega) was added. The samples were mixed by agitation and incubated at […] 10-15 min at room temperature in a 5% CO2-95% humidity incubator. Fluorescence was read as above, (LStart) defining luminescence for initial cell number used as baseline in GI50 determinations.
(§5) Calculation: GI50 (dose for 50% inhibition of cell proliferation) is the concentration where [(Ltest−LStart)/(LMax−LStart)]=0.5.

[8] = tested on: human leukemia cell line K562; assay: Inhibition of cell proliferation (GI50), K562; conditions: Homo sapiens; K562 cells, 48 h, CellTiter-Glo
Protocol: as §3, §4, §5

[9] = tested on: human lymphoma cell line Raji; assay: Inhibition of cell proliferation (GI50), Raji; conditions: Homo sapiens; Raji cells, 48 h, CellTiter-Glo
Protocol: as §3, §4, §5

[10] = tested on: human B cell lymphoblastoid cell line Ramos; assay: Inhibition of cell proliferation (GI50), Ramos; conditions: Homo sapiens; Ramos cells, 48 h, CellTiter-Glo
Protocol: as §3, §4, §5

[11] = tested on: human Burkitt's lymphoma cell line Namalwa; assay: Inhibition of cell proliferation (GI50), Namalwa; conditions: Homo sapiens, Burkitts lymphoma cell; Namalwa cells, 48 h, CellTiter-Glo
Protocol: as §3, §4, §5

[12] = tested on: human cancer cell line H1299; assay: Caspase cascade activation (EC50), H1299; conditions: NCI-H1299, H1299 cells, read-out: caspase potency (EC50) H1299
Protocol: as §2

Row | Structure (SMILES) | EC50 [1] | EC50 [2] | EC50 [3] | EC50 [4] | EC50 [5] | EC50 [6] | GI50 [7] | GI50 [8] | GI50 [9] | GI50 [10] | GI50 [11] | EC50 [12]
1 | COc1ccccc1-c1nnc2n1N=C(c1ccc(O)cc1)CS2 [Example 7, 6-(4-Hydroxyphenyl)-3-(2-methoxyphenyl)-7H-[1,2,4]triazolo[3,4-b][1,3,4]thiadiazine hydrobromide] | 173 nM | 148 nM | 280 nM | 253 nM | 478 nM | 262 nM | 1180 nM | 219 nM | 1000 nM | 176 nM | 579 nM | –
2 | COc1cc(-c2nnc3n2N=C(c2ccc(C)cc2)CS3)cc(OC)c1O [Example 13, 3-(3,5-Dimethoxy-4-hydroxyphenyl)-6-(4-methylphenyl)-7H-[1,2,4]triazolo[3,4-b][1,3,4]thiadiazine hydrobromide] | 625 nM | 101 nM | 189 nM | 73 nM | 52 nM | 69 nM | 165 nM | 51 nM | 97 nM | 50 nM | 18 nM | –
3 | COc1ccc(-c2nnc3n2N=C(c2ccc(C)cc2)CS3)cc1OC [Example 14, 3-(3,4-Dimethoxyphenyl)-6-(4-methylphenyl)-7H-[1,2,4]triazolo[3,4-b][1,3,4]thiadiazine hydrobromide] | 396 nM | 65 nM | 107 nM | 131 nM | 198 nM | 125 nM | 1010 nM | 87 nM | 838 nM | 300 nM | 137 nM | –
4 | COc1cc(-c2nnc3n2N=C(c2ccccc2)CS3)cc(OC)c1OC [Example S1, 3-(3,4,5-Trimethoxyphenyl)-6-phenyl-7H-[1,2,4]triazolo[3,4-b][1,3,4]thiadiazine] | 323 nM | 226 nM | 284 nM | 313 nM | 619 nM | 316 nM | – | – | – | – | – | 1260 nM
5 | CCOc1ccc(C2=Nn3c(nnc3-c3cc(OC)c(OC)c(OC)c3)SC2)cc1 [Example T1, 3-(3,4,5-Trimethoxyphenyl)-6-(4-ethoxyphenyl)-7H-[1,2,4]triazolo[3,4-b][1,3,4]thiadiazine] | 2580 nM | 519 nM | > 10000 nM | 510 nM | 656 nM | 498 nM | – | – | – | – | – | 2580 nM
6 | Clc1cccc(-c2nnc3n2N=C(c2ccc4c(c2)OCO4)CS3)c1 [S, 3-(3-Chlorophenyl)-6-(3,4-methylenedioxyphenyl)-7H-[1,2,4]triazolo[3,4-b][1,3,4]thiadiazine] | > 10000 nM | 1630 nM | > 10000 nM | > 10000 nM | > 1000 nM | > 1000 nM | – | – | – | – | – | > 10000 nM
7 | COc1cccc(-c2nnc3n2N=C(c2ccc(OC)c(OC)c2)CS3)c1 [Y, 3-(3-Methoxyphenyl)-6-(3,4-dimethoxyphenyl)-7H-[1,2,4]triazolo[3,4-b][1,3,4]thiadiazine] | 4130 nM | 1360 nM | 3180 nM | 558 nM | 735 nM | 593 nM | – | – | – | – | – | 2850 nM

Further lines, results first:

Row | EC50 [1] | EC50 [2] | EC50 [3] | EC50 [4] | EC50 [5] | EC50 [6] | GI50 [7] | GI50 [8] | GI50 [9] | GI50 [10] | GI50 [11] | EC50 [12] | Structure (SMILES)
8 | 300 nM | 267 nM | 612 nM | 254 nM | 431 nM | 306 nM | 1670 nM | 315 nM | 746 nM | 173 nM | 618 nM | – | COc1ccccc1-c1nnc2n1N=C(c1ccc(OCCO)cc1)CS2 [Example 10, 6-(4-(2-Hydroxyethoxy)phenyl)-3-(2-methoxyphenyl)-7H-[1,2,4]triazolo[3,4-b][1,3,4]thiadiazine]
9 | 760 nM | 61 nM | 71 nM | 20 nM | 55 nM | 20 nM | 50 nM | 7 nM | 15 nM | 5 nM | 6 nM | – | COc1cc(OC)cc(-c2nnc3n2N=C(c2ccc(C)cc2)CS3)c1 [Example 12, 3-(3,5-Dimethoxyphenyl)-6-(4-methylphenyl)-7H-[1,2,4]triazolo[3,4-b][1,3,4]thiadiazine hydrochloride]
10 | 2440 nM | 1230 nM | > 10000 nM | 1180 nM | 2330 nM | 1270 nM | – | – | – | – | – | 2420 nM | COc1ccc(-c2nnc3n2N=C(c2cc(OC)ccc2OC)CS3)cc1 [H, 3-(4-Methoxyphenyl)-6-(2,5-dimethoxyphenyl)-7H-[1,2,4]triazolo[3,4-b][1,3,4]thiadiazine]
11 | 3270 nM | 2550 nM | > 10000 nM | > 10000 nM | > 1000 nM | > 1000 nM | – | – | – | – | – | 2930 nM | COc1ccc(-c2nnc3n2N=C(c2ccc4c(c2)OCO4)CS3)cc1 [J, 3-(4-Methoxyphenyl)-6-(3,4-methylenedioxyphenyl)-7H-[1,2,4]triazolo[3,4-b][1,3,4]thiadiazine]
